According to patent publication US6043279A, “Compounds having selective activity for retinoid X receptors, and means for modulation of processes mediated by retinoid X receptors” (priority 1997, dated 2000):

Assays:
Type in all cases: cell-based
RARα = target: T1, RARα (Homo sapiens, UniProt P10276); test: co-transfection (cis-trans) assay in CV-1 cells, RARα; settings: for Emax: CV-1, maximal response relative to all-trans-retinoic acid at 10^-5 M, read-out: Efficacy RARα; for EC50: CV-1 cells, luciferase reporter, concentration giving 50% of maximal observed response, read-out: Potency (nM) RARα
T1 construct: expressed in transfected cells; host or cells: CV-1 (monkey kidney)
T1 sequence (P10276 1-462): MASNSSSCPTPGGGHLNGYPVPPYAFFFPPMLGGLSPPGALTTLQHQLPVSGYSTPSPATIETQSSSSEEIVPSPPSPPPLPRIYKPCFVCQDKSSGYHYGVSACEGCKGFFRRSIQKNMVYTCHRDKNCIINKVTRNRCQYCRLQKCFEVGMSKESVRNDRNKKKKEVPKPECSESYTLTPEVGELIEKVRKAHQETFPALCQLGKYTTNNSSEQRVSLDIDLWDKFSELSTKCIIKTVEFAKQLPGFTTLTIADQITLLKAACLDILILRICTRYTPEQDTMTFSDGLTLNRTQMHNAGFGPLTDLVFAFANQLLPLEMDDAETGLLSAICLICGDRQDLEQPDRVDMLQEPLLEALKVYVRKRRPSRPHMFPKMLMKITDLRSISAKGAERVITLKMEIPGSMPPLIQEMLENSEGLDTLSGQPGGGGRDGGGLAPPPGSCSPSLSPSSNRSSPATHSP
Description: (§1) The co-transfection assay provides a mechanism to evaluate the ability of a compound to modulate the transcription response initiated by an intracellular receptor. […] Berger et al., J. Steroid Biochem. Molec.
(§2) Briefly, the co-transfection assay involves the introduction of two plasmids by transient transfection into a retinoid receptor-negative mammalian cell background. The first plasmid contains a retinoid receptor cDNA and directs constitutive expression of the encoded receptor. The second plasmid contains a cDNA that encodes for a readily quantifiable protein, e.g., firefly luciferase or chloramphenicol acetyl transferase (CAT), under control of a promoter containing a retinoid acid response element, which confers retinoid dependence on the transcription of the reporter. In this co-transfection assay, all retinoid receptors respond to all-trans-retinoic acid in a similar fashion. This assay can be used to accurately measure efficacy and potency of retinoic acid and synthetic retinoids as ligands that interact with the individual retinoid receptor subtypes.
(§3) Accordingly, synthetic retinoid compounds of the current invention were evaluated for their interaction with retinoid receptor subtypes using the co-transfection assay in which CV-1 cells were co-transfected with one of the retinoid receptor subtypes, a reporter construct, and an internal control to allow normalization of the response for transfection efficiency. The following example is illustrative.
(§4) Retinoids: All-trans-retinoic acid (RA) and 13-cis-retinoic acid (13-cis-RA) were obtained from Sigma. […] Retinoids were dissolved in dimethylsulfoxide for use in the transcriptional activation assays.
(§5) Co-transfection Assay In CV-1 Cells: A monkey kidney cell line, CV-1, was used in the cis-trans assay. Cells were transfected with two plasmids. […] The cis-vector contains an easily assayable gene product, in this case the firefly luciferase, coupled to a retinoid-responsive promoter, i.e., an RARE or RXRE. Addition of retinoic acid or an appropriate synthetic retinoid results in the formation of a retinoid-RAR or -RXR complex that activates the expression of luciferase gene, causing light to be emitted from cell extracts. The level of luciferase activity is directly proportional to the effectiveness of the retinoid-receptor complex in activating gene expression. This sensitive and reproducible co-transfection approach permits the identification of retinoids that interact with the different receptor isoforms.
(§6) Cells were cultured in DMEM supplemented with 10% charcoal resin-stripped fetal bovine serum, and experiments were conducted in 96-well plates. […] Cells were transfected for 6 h and then washed to remove the precipitate. The cells were then incubated for 36 h with or without retinoid. […]

RXRγ = target: T2, RXRγ (Mus musculus, UniProt P28705); test: co-transfection (cis-trans) assay in CV-1 cells, RXRγ; settings: for Emax at 10 µM: CV-1, maximal response relative to all-trans-retinoic acid at 10^-5 M, read-out: Efficacy RXRγ; for EC50: CV-1 cells, luciferase reporter, concentration giving 50% of maximal observed response, read-out: Potency (nM) RXRγ
T2 construct: expressed in transfected cells; host or cells: CV-1 (monkey kidney)
T2 sequence (P28705 1-463): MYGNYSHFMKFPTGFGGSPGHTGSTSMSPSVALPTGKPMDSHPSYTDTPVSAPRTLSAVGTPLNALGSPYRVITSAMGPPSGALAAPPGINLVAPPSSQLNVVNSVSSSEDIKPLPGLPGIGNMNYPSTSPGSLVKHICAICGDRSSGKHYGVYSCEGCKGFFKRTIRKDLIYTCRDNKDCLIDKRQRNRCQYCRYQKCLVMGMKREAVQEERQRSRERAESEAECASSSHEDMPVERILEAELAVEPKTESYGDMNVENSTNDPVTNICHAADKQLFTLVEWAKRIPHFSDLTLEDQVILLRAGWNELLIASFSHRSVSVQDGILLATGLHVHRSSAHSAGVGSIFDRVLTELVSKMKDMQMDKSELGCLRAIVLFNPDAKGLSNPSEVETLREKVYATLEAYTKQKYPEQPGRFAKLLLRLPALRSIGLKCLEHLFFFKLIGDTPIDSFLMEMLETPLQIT
Description: as §1, §2, §3, §4, §5, §6

RARγ = target: T3, RARγ (Homo sapiens, UniProt P13631); test: co-transfection (cis-trans) assay in CV-1 cells, RARγ; settings: for Emax: CV-1, maximal response relative to all-trans-retinoic acid at 10^-5 M, read-out: Efficacy RARγ; for EC50: CV-1 cells, luciferase reporter, concentration giving 50% of maximal observed response, read-out: Potency (nM) RARγ
T3 construct: expressed in transfected cells; host or cells: CV-1 (monkey kidney)
T3 sequence (P13631 1-454): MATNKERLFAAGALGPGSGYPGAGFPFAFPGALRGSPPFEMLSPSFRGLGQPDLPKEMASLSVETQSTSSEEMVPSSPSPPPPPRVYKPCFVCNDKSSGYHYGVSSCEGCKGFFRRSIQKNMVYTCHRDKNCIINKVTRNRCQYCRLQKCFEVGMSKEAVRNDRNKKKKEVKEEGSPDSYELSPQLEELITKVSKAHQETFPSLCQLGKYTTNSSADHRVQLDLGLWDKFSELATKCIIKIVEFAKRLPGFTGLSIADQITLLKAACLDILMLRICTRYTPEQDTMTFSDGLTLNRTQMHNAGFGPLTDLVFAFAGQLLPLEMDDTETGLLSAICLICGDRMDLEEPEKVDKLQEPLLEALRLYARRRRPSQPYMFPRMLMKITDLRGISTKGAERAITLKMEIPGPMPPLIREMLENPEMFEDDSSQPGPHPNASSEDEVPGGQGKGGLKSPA
Description: as §1, §2, §3, §4, §5, §6

Emax (RARα) | EC50 (RARα) | Emax at 10 µM (RXRγ) | EC50 (RXRγ) | Emax (RARγ) | EC50 (RARγ) | Structure (SMILES)
< 2% | > 10000 nM | 91% | 290 nM | < 2% | > 10000 nM | C=C(c1ccc(C(=O)O)cc1)c1ccc(C(C)(C)C)cc1C [Compound 133, 4-[1-(2-methyl-4-t-butylphenyl)ethenyl]benzoic acid]
< 2% | > 10000 nM | 50% | 190 nM | < 2% | > 10000 nM | Cc1cc(C(C)(C)C)ccc1C(=NO)c1ccc(C(=O)O)cc1 [Compound 137, 4-[(2-methyl-4-t-butylphenyl)carbonyl]benzoic acid oxime]
